Reference: US4540697A, “Aminopropanol derivatives of 2-hydroxy-β-phenyl-propiophenones, pharmaceutical compositions and use” (priority 1984, dated 1985)
Converted amounts (≈) assume the structure as drawn. Counter-ions that a name gives are not always drawn.

Columns and labels:
[1] = tested on: isolated left atrium of male guineapigs; assay: Antiarrhythmic action on the isolated guineapig atrium (drop in maximum rhythmicity); parameters: species or system guineapig (strain: Pirbright white); settings: Cavia porcellus, Tyrode's solution pH 7.4, 32° C., read-out: Maximum rhythmicity (ED 50%): concentration which causes a 50% drop in the maximum rhythmicity
Procedure: The antiarrhythmic activity of the compounds according to the invention was determined on the isolated left atrium of male guineapigs (strain: Pirbright white, weight: 350 to 450 g).
Atria suspended in an organ bath (volume: 125 ml) with carbogen-saturated Tyrode's solution (pH 7.4, 32° C.) were pre-loaded with 1.0 g and subjected to square-wave pulses having a base rhythm of 1 Hz and twice the excitation threshold (rheobase: 0.2-1.4 V, chronaxia: 0.3-0.5 msec).
The frequency (Hz) up to which contraction follows each stimulus (maximum rhythmicity, MR) was determined, by automatically and continuously increasing the frequency, as a criterion of the antiarrhythmic activity. The concentration which causes a drop in the maximum rhythmicity of 50% (EC 50%) was calculated from the linear relationship between the logarithm of the concentration (mg/l) and the relative drop in the maximum rhythmicity (%).
(§1) The known antiarrhythmic drug propafenone [2-(2-hydroxy-3-propylamino-propoxy)-3-phenyl-propiophenone hydrochloride]was used as the comparative substance.

[2] = tested on: aconitine arrhythmia in rats; assay: Antiarrhythmic action on aconitine arrhythmia in rats; assay type: in vivo, rat (strain: Sprague Dawley); settings: Rattus norvegicus, po, 1 h, peroral administration, aconitine infused 60 minutes after substance, read-out: ED 50%: dose which causes a 50% extension in the period of aconitine infusion
Procedure: Moreover, the novel compounds were administered orally or intravenously to male rats (strain: Sprague Dawley, weight: 200-230 g) to determine the antiarrhythmic activity. 45 minutes later, the animals were anesthetized by intraperitoneal administration of 100 mg/kg of thiobutabarbital sodium. Aconitine served as the arrhythmogenic substance, and was infused intravenously at a dosage rate of 0.005 mg/kg/minute 60 minutes after administration of the substance. In untreated animals (n=52), arrhythmias appeared in the ECG after 2.74±0.07 minutes. These arrhythmias can be delayed by antiarrhythmic drugs, as a function of the dose.
The dose which extends the infusion period by 50% (ED 50%) was determined from the linear relationship between the logarithm of the dose (mg/kg) of the trial substance and the relative extension of the period of aconitine infusion (Δ%).
as §1

Structure (SMILES)	EC50 [1] [µg/mL]	ED50 [2] [mg/kg]
CN(C)c1ccc(CCC(=O)c2ccccc2OCC(O)CNC2CC2)cc1 (stereo not drawn) [Example 57, 2-(2'-Hydroxy-3'-cyclopropylamino-propoxy)-β-(4-dimethylaminophenyl)-propiophenone hydrochloride]	2.04	1.78
O=C(CCc1ccccc1)c1ccccc1OCC(O)CN1CCC(O)CC1 (stereo not drawn) [Example 23, 2-[2'-Hydroxy-3'-(4-hydroxypiperidino)-propoxy]-β-phenyl-propiophenone hydrochloride]	1.64	31.6
CN(C)c1ccc(CCC(=O)c2ccccc2OCC(O)CN2CCCCC2)cc1 (stereo not drawn) [Example 55, 2-(2'-Hydroxy-3'-piperidino-propoxy)-β-(4-dimethylaminophenyl)-propiophenone]	0.854 (≈ 2.08 µM)	5.7
O=C(CCc1ccccc1)c1ccccc1OCC(O)CN1CCC(O)(c2ccccc2)CC1 (stereo not drawn) [Example 24, 2-[2'-Hydroxy-3'-(4-hydroxy-4-phenyl-piperidino)-propoxy]-β-phenyl-propiophenone hydrochloride]	2.65	25.4
CCCNCC(O)COc1ccccc1C(=O)CCc1ccc(C)cc1 (stereo not drawn) [Example 34, 2-(2'-Hydroxy-3'-n-propylamino-propoxy)-β-(4-methylphenyl)-propiophenone hydrochloride]	1.72	21.5
CCCNCC(O)COc1ccccc1C(=O)CCc1ccc(F)cc1 (stereo not drawn) [Example 33, 2-(2'-Hydroxy-3'-n-propylamino-propoxy)-β-(4-fluorophenyl)-propiophenone hydrochloride]	2.05	24.5
COCC(C)NCC(O)COc1ccccc1C(=O)CCc1ccccc1 (stereo not drawn) [Example 2, 2-[2'-Hydroxy-3'-(3-methoxyprop-2-ylamino)-propoxy]-β-phenyl-propiophenone hydrochloride]	0.874	46.4
O=C(CCc1ccccc1)c1ccccc1OCC(O)CNC1CC1 (stereo not drawn) [Example 3, 2-(2'-Hydroxy-3'-cyclopropylamino-propoxy)-β-phenylpropiophenone hydrochloride]	1.51	38.2
CSCC(C)NCC(O)COc1ccccc1C(=O)CCc1ccccc1 (stereo not drawn) [Example 10, 2-[2'-Hydroxy-3'-(3-thiomethoxyprop-2-ylamino)-propoxy]-β-phenyl-propiophenone hydrochloride]	1.13	46.4
COCC(C)NCC(O)COc1ccccc1C(=O)CCc1ccc(N(C)C)cc1 (stereo not drawn) [Example 60, 2-[2'-Hydroxy-3'-(3-methoxy-prop-2-ylamino)-propoxy]-β-(4-dimethylaminophenyl)-propiophenone hydrochloride]	1.82	3.25
CN1CCN(CC(O)COc2ccccc2C(=O)CCc2ccc(N(C)C)cc2)CC1 (stereo not drawn) [Example 67, 2-[2'-Hydroxy-3'-(4-methyl-piperazin-1-yl)-propoxy]-β-(4-dimethylaminophenyl)-propiophenone hydrochloride]	0.658	2.15
CC(CCO)NCC(O)COc1ccccc1C(=O)CCc1ccccc1 (stereo not drawn) [Example 1, 2-[2'-Hydroxy-3'-(4-hydroxybut-2-ylamino)-propoxy]-β-phenyl-propiophenone hydrochloride]	1.9	15
CCCNCC(O)COc1ccccc1C(=O)CCc1cc(OC)c(OC)c(OC)c1 (stereo not drawn) [Example 49, 2-(2'-Hydroxy-3'-n-propylaminopropoxy)-β-(3,4,5-trimethoxyphenyl)-propiophenone]	1.82 (≈ 4.22 µM)	31.6
CCCNCC(O)COc1ccccc1C(=O)CCc1ccc(N(C)C)cc1 (stereo not drawn) [Example 35, 2-(2'-Hydroxy-3'-n-propylamino-propoxy)-β-(4-dimethylaminophenyl)-propiophenone hydrochloride]	1.65	1.99
CCCCNCC(O)COc1ccccc1C(=O)CCc1ccc(N(C)C)cc1 (stereo not drawn) [Example 58, 2-(2'-Hydroxy-3'-n-butylamino-propoxy)-β-(4-dimethylaminophenyl)-propiophenone hydrochloride]	1.92	2.33
COCCNCC(O)COc1ccccc1C(=O)CCc1ccccc1 (stereo not drawn) [Example 9, 2-[2'-Hydroxy-3'-(2-methoxyethylamino)-propoxy]-β-phenyl-propiophenone hydrochloride]	0.757	27
CN1CCN(CC(O)COc2ccccc2C(=O)CCc2ccccc2)CC1 (stereo not drawn) [Example 25, 2-[2'-Hydroxy-3'-(4-methyl-piperazin-1-yl)-propoxy]-β-phenyl-propiophenone bis-hydrochloride]	1.01	11.2
